{"source": "patent US11053204B2", "about": "“Pyrimidinyloxy benzene derivatives as herbicides” (FMC Corporation, priority 2015, dated 2021)", "assay_type_in_all_cases": "in vivo", "key": {"[1]": {"tested_on": "wheat (Triticum aestivum)", "experiment": "Test A postemergence, visual injury rating", "details": "Triticum aestivum, post-emergence, 240 h, 0 is no effect, 100 is complete control, read-out: Wheat plant response rating (0 to 100 scale)", "procedure,_shortened": "(§1)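 Injury scores run from 0, no effect, to 100, complete control, judged by eye against untreated plants roughly 10 days after treatment. Chemicals carried a surfactant in a non-phytotoxic solvent and went onto loam–sand soil preemergence or onto one- to two-leaf seedlings postemergence.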"}, "[2]": {"tested_on": "corn (Zea mays)", "experiment": "Test A postemergence, visual injury rating", "details": "Zea mays, post-emergence, 240 h, 0 is no effect, 100 is complete control, read-out: Corn plant response rating (0 to 100 scale)", "procedure,_shortened": "as §1"}, "[3]": {"tested_on": "ragweed (common ragweed, Ambrosia elatior)", "experiment": "Test A postemergence, visual injury rating", "details": "Ambrosia artemisiifolia, post-emergence, 240 h, 0 is no effect, 100 is complete control, read-out: Ragweed plant response rating (0 to 100 scale)", "procedure,_shortened": "as §1"}, "[4]": {"tested_on": "Italian ryegrass (Lolium multiflorum)", "experiment": "Test A postemergence, visual injury rating", "details": "Lolium multiflorum, post-emergence, 240 h, 0 is no effect, 100 is complete control, read-out: Ryegrass, Italian plant response rating (0 to 100 scale)", "procedure,_shortened": "as §1"}, "[5]": {"tested_on": "kochia (Kochia scoparia)", "experiment": "Test A postemergence, visual injury rating", "details": "Bassia scoparia, post-emergence, 240 h, 0 is no effect, 100 is complete control, read-out: Kochia plant response rating (0 to 100 scale)", "procedure,_shortened": "as §1"}, "[6]": {"tested_on": "pigweed (Amaranthus retroflexus)", "experiment": "Test A postemergence, visual injury rating", "details": "Amaranthus retroflexus, post-emergence, 240 h, 0 is no effect, 100 is complete control, read-out: Pigweed plant response rating (0 to 100 scale)", "procedure,_shortened": "as §1"}, "[7]": {"tested_on": "giant foxtail (Setaria faberii)", "experiment": "Test A postemergence, visual injury rating", "details": "Setaria faberi, post-emergence, 240 h, 0 is no effect, 100 is complete control, read-out: Foxtail, Giant plant response rating (0 to 100 scale)", "procedure,_shortened": "as §1"}, "[8]": {"tested_on": "morningglory (Ipomoea coccinea)", "experiment": "Test C postemergence, plant response rating", "details": "Ipomoea, post-emergence", "procedure,_shortened": "(§2)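 Both timings shared one formulation, a non-phytotoxic solvent mixture with surfactant, and a greenhouse period of 13 to 15 d. Preemergence used seeded loam/sand or silt loam soil, postemergence used 2 to 18 cm plants; visual ratings ran from 0 (no effect) to 100 (complete control).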"}, "[9]": {"tested_on": "waterhemp (common waterhemp, Amaranthus rudis)", "experiment": "Test C postemergence, plant response rating", "details": "for Plant response rating, Waterhemp: scale 0 to 100; for Waterhemp plant response rating: scale 0 to 100 (0 no effect, 100 complete control)", "procedure,_shortened": "as §2"}, "[10]": {"tested_on": "barnyardgrass (Echinochloa crus-galli)", "experiment": "Test C postemergence, plant response rating", "details": "Echinochloa crus-galli, post-emergence", "procedure,_shortened": "as §2"}, "[11]": {"tested_on": "ragweed (common ragweed, Ambrosia elatior)", "experiment": "Test C postemergence, plant response rating", "details": "Ambrosia artemisiifolia, post-emergence", "procedure,_shortened": "as §2"}, "[12]": {"tested_on": "velvetleaf (Abutilon theophrasti)", "experiment": "Test C postemergence, plant response rating", "details": "Abutilon theophrasti, post-emergence", "procedure,_shortened": "as §2"}, "[13]": {"tested_on": "oilseed rape (Brassica napus)", "experiment": "Test C postemergence, plant response rating", "details": "Brassica napus, post-emergence", "procedure,_shortened": "as §2"}, "[14]": {"tested_on": "kochia (Kochia scoparia)", "experiment": "Test C postemergence, plant response rating", "details": "Bassia scoparia, post-emergence", "procedure,_shortened": "as §2"}, "[15]": {"tested_on": "ducksalad (Heteranthera limosa)", "experiment": "Test B flooded paddy test, plant response rating", "details": "Heteranthera limosa, 312 h; 250 g ai/ha; Flood; scale of 0 to 100 where 0 is no effect and 100 is complete control; 13 to 15 days", "procedure,_shortened": "(§3)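 In-water treatment: compound dosed into 3 cm flood over soil, water level unchanged throughout. Controls run alongside; visual assessment at day 13–15.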"}, "[16]": {"tested_on": "sedge, umbrella (small-flower umbrella sedge, Cyperus difformis)", "experiment": "Test B flooded paddy test, plant response rating", "details": "Cyperus difformis, 312 h; 250 g ai/ha; Flood; scale of 0 to 100 where 0 is no effect and 100 is complete control; 13 to 15 days", "procedure,_shortened": "as §3"}, "[17]": {"tested_on": "barnyardgrass (Echinochloa crus-galli)", "experiment": "Test B flooded paddy test, plant response rating", "details": "Echinochloa crus-galli, 312 h; 250 g ai/ha; Flood; scale of 0 to 100 where 0 is no effect and 100 is complete control; 13 to 15 days", "procedure,_shortened": "as §3"}, "[18]": {"tested_on": "rice (Oryza sativa)", "experiment": "Test B flooded paddy test, plant response rating", "details": "Oryza sativa, 312 h; 250 g ai/ha; Flood; scale of 0 to 100 where 0 is no effect and 100 is complete control; 13 to 15 days", "procedure,_shortened": "as §3"}, "[19]": {"details": "62 g ai/ha, scale 0 to 100 (0 no effect, 100 complete control)"}, "[20]": {"details": "125 g ai/ha, scale 0 to 100 (0 no effect, 100 complete control)"}}, "data": [{"compound": "C=CCOC(=O)c1c(Br)cccc1Oc1ncc(Cl)cn1", "note": "[Compound 22, 2-propen-1-yl 2-bromo-6-[(5-chloro-2-pyrimidinyl)oxy]benzoate]", "values": [{"measurement": "plant injury at 125 g/ha", "setting": "[1]; 125 g ai/ha", "value": 0, "unit": "%"}, {"measurement": "plant injury at 500 g/ha", "setting": "[1]; 500 g ai/ha", "value": 30, "unit": "%"}, {"measurement": "plant injury at 125 g/ha", "setting": "[2]; 125 g ai/ha", "value": 30, "unit": "%"}, {"measurement": "plant injury at 500 g/ha", "setting": "[2]; 500 g ai/ha", "value": 50, "unit": "%"}, {"measurement": "pest or weed control at 125 g/ha", "setting": "[3]; 125 g ai/ha", "value": 0, "unit": "%"}, {"measurement": "pest or weed control at 500 g/ha", "setting": "[3]; 500 g ai/ha", "value": 30, "unit": "%"}, {"measurement": "pest or weed control at 125 g/ha", "setting": "[4]; 125 g ai/ha", "value": 0, "unit": "%"}, {"measurement": "pest or weed control at 500 g/ha", "setting": "[4]; 500 g ai/ha", "value": 60, "unit": "%"}, {"measurement": "pest or weed control at 125 g/ha", "setting": "[5]; 125 g ai/ha", "value": 90, "unit": "%"}, {"measurement": "pest or weed control at 500 g/ha", "setting": "[5]; 500 g ai/ha", "value": 100, "unit": "%"}, {"measurement": "pest or weed control at 125 g/ha", "setting": "[6]; 125 g ai/ha", "value": 100, "unit": "%"}, {"measurement": "pest or weed control at 500 g/ha", "setting": "[6]; 500 g ai/ha", "value": 100, "unit": "%"}, {"measurement": "pest or weed control at 125 g/ha", "setting": "[7]; 125 g ai/ha", "value": 80, "unit": "%"}, {"measurement": "pest or weed control at 500 g/ha", "setting": "[7]; 500 g ai/ha", "value": 100, "unit": "%"}, {"measurement": "pest or weed control at 16 g/ha", "setting": "[8]; 16 g ai/ha, scale 0 to 100", "value": 5, "unit": "%"}, {"measurement": "pest or weed control at 31 g/ha", "setting": "[8]; 31 g ai/ha, scale 0 to 100", "value": 10, "unit": "%"}, {"measurement": "pest or weed control at 62 g/ha", "setting": "[8]; [19]", "value": 35, "unit": "%"}, {"measurement": "pest or weed control at 125 g/ha", "setting": "[8]; [20]", "value": 50, "unit": "%"}, {"measurement": "Plant response rating, Waterhemp", "setting": "[9]; 16 g ai/ha", "value": 75}, {"measurement": "Plant response rating, Waterhemp", "setting": "[9]; 31 g ai/ha", "value": 75}, {"measurement": "Waterhemp plant response rating", "setting": "[9]; 62 g ai/ha", "value": 85}, {"measurement": "Waterhemp plant response rating", "setting": "[9]; 125 g ai/ha", "value": 80}, {"measurement": "pest or weed control at 16 g/ha", "setting": "[10]; 16 g ai/ha, scale 0 to 100", "value": 5, "unit": "%"}, {"measurement": "pest or weed control at 31 g/ha", "setting": "[10]; 31 g ai/ha, scale 0 to 100", "value": 5, "unit": "%"}, {"measurement": "pest or weed control at 62 g/ha", "setting": "[10]; [19]", "value": 10, "unit": "%"}, {"measurement": "pest or weed control at 125 g/ha", "setting": "[10]; [20]", "value": 10, "unit": "%"}, {"measurement": "pest or weed control at 16 g/ha", "setting": "[11]; 16 g ai/ha, scale 0 to 100", "value": 5, "unit": "%"}, {"measurement": "pest or weed control at 31 g/ha", "setting": "[11]; 31 g ai/ha, scale 0 to 100", "value": 35, "unit": "%"}, {"measurement": "pest or weed control at 62 g/ha", "setting": "[11]; [19]", "value": 50, "unit": "%"}, {"measurement": "pest or weed control at 125 g/ha", "setting": "[11]; [20]", "value": 50, "unit": "%"}, {"measurement": "pest or weed control at 16 g/ha", "setting": "[12]; 16 g ai/ha, scale 0 to 100", "value": 50, "unit": "%"}, {"measurement": "pest or weed control at 31 g/ha", "setting": "[12]; 31 g ai/ha, scale 0 to 100", "value": 40, "unit": "%"}, {"measurement": "pest or weed control at 62 g/ha", "setting": "[12]; 62 g ai/ha, scale 0 to 100 (0 no effect, 100 complete control), read-out: Velvetleaf plant response rating", "value": 55, "unit": "%"}, {"measurement": "pest or weed control at 125 g/ha", "setting": "[12]; [20]", "value": 85, "unit": "%"}, {"measurement": "plant injury at 16 g/ha", "setting": "[13]; 16 g ai/ha, scale 0 to 100", "value": 35, "unit": "%"}, {"measurement": "plant injury at 31 g/ha", "setting": "[13]; 31 g ai/ha, scale 0 to 100", "value": 40, "unit": "%"}, {"measurement": "plant injury at 62 g/ha", "setting": "[13]; [19]", "value": 55, "unit": "%"}, {"measurement": "plant injury at 125 g/ha", "setting": "[13]; [20]", "value": 80, "unit": "%"}, {"measurement": "pest or weed control at 16 g/ha", "setting": "[14]; 16 g ai/ha, scale 0 to 100", "value": 50, "unit": "%"}, {"measurement": "pest or weed control at 31 g/ha", "setting": "[14]; 31 g ai/ha, scale 0 to 100", "value": 80, "unit": "%"}, {"measurement": "pest or weed control at 62 g/ha", "setting": "[14]; [19]", "value": 85, "unit": "%"}, {"measurement": "pest or weed control at 125 g/ha", "setting": "[14]; [20]", "value": 50, "unit": "%"}, {"measurement": "pest or weed control at 250 g/ha", "setting": "[15]", "value": 40, "unit": "%"}, {"measurement": "pest or weed control at 250 g/ha", "setting": "[16]", "value": 50, "unit": "%"}, {"measurement": "pest or weed control at 250 g/ha", "setting": "[17]", "value": 0, "unit": "%"}, {"measurement": "plant injury at 250 g/ha", "setting": "[18]", "value": 0, "unit": "%"}]}]}
